Key:
pyoverdine = assay: Quantification of secreted pyoverdine; assay type: cell-based, Pseudomonas aeruginosa; conditions: 15 μM; 24 h
Experimental: (§1) To quantify the secreted virulence factors, overnight P. aeruginosa PAO1 was diluted in fresh M9 medium and cultured to a final OD600 value of 0.15. Then Au1 or auranofin were added into culture with indicated concentrations. After 24 h incubation at 37°C, the bacterial supernatants were collected by centrifugation at 4,000 g for 10 min at 4°C and filtered using a 0.22 μm syringe filter (Millipore). The secreted virulence factors in the supernatant were quantified by the methods described below.

LasB elastase = assay: LasB elastase, Elastin-Congo red assay; assay type: cell-based, Pseudomonas aeruginosa; conditions: 15 μM; 24 h
Experimental: as §1
The LasB elastase was examined by Elastin-Congo red assay ([Morihara et al., 1965]). In brief, 700 μL of bacterial supernatant was incubated with 700 μL of 10 mg/ml Elastin-Congo (Sigma-Aldrich) red elastase substrate in reaction buffer (100 mM Tris-HCl, 1 mM CaCl2, pH 7.5) at 37°C for 3 h with shaking. Then 0.2 ml EDTA was added to a final concentration of 10 mM to stop the cleavage reaction. Insoluble pellets were removed by centrifugation and the absorbance of the supernatant at 495 nm was measured.

lung carcinoma A549 cell = assay: MTT cytotoxicity assay; assay type: cell-based, Human; conditions: 48 h
Experimental: The cytotoxicity of gold compounds to mammalian cells was measured using the 3-(4, 5-dimethylthiazol-2-yl)-2, 5-diphenyltetrazolium bromide (MTT) assay. Human hepatocyte L-O2 cell, and lung carcinoma A549 cell were cultured in Corning 96 well microplates (10^4 cells per well) at 37°C for 18 h. Then the cells were incubated with gradient concentrations of gold compounds at 37°C for another 48 h. After the treatment, cell culture media were removed and the plates were wash with PBS for three times. And 90 μL fresh media and 10 μL 5 mg/ml MTT solution were added to each well and further incubated at 37°C for 4 h. Subsequently, the media were removed from the wells and 150 μL DMSO was added into each well to dissolve the formazan crystals. The absorbance at 490 nm of each well was measured with a micro-plate reader. The experiments were carried out in triplicates.

P. aeruginosa = assay: Bacterial growth curves; assay type: cell-based, Pseudomonas aeruginosa; conditions: growth curves
Experimental: Pseudomonas aeruginosa strain PAO1 (P. aeruginosa) was grown in M9 minimal medium (1.0 g/L NH4Cl, 0.5 g/L NaCl, 6.0 g/L Na2HPO4, 3.0 g/L KH2PO4) supplemented with 1.0 mM MgSO4, 1.0 mM ZnSO4, 0.2 mM CaCl2, 0.4% (w/v) glucose and 0.2% (w/v) casein hydrolysate. Gram-negative Escherichia coli strain K-12 (E. coli) and Burkholderia cepacia J2315 (B. cepacia) were cultured in Luria-Bertani (LB) medium (5 g/L yeast extract, 10 g/L tryptone, 10 g/L sodium chloride). The Gram-positive Staphylococcus aureus strain Newman (S. aureus) was grown in Tryptic Soy Broth (TSB) medium (17 g/L Tryptone, 3 g/L Phytone, 5 g/L sodium chloride, 2.5 g/L dipotassium phosphate and glucose 2.5 g/L).

P. aeruginosa PAO1 = assay: Mouse skin wound infection model; assay type: in vivo
Experimental: Six-week-old female BALB/c mice were used for animal experiments to evaluate the healing effect of infected wounds in vivo. Briefly, mouse backs were cut to generate a circular wound (diameter 0.6 cm) with a hole punch and the wound was infiltrated using a medical cotton swab with P. aureginosa (overnight culture, OD600 = 0.3). The mice were randomly divided into three groups, including PBS, auranofin, and Au-1 groups (n = 5 in each group). The drugs were dissolved in DMSO and diluted with glycerol to a final concentration of 50 μM. After the bacterial fluid was dry, about 20 μL of the drug was added to the wound. Body weights and wound photography was recorded on days 0, 1, 3, 5, and 8. And on the 8th day, the mice were euthanized by chloral hydrate, the infectious tissues in all groups were collected and cultured into the LB plate for colony counting. The skin tissues were also fixed by paraformaldehyde solution (4%) for H&E, Gram, and Masson’s trichrome staining.
The above results promoted us to further investigate whether the Au1 compound was also efficacious in an in vivo animal infection model. To this end, we used a mouse wound infection model to assess the anti-P. aeruginosa efficacy of Au1 as described previously ([Liao et al., 2017b]). In brief, a circular wound with a diameter of 6 mm was created on the flank of mice, and approximately 5 × 10^8 CFU of P. aeruginosa PAO1 were dipped onto the wound by medical cotton swab to induce infection. Treatment is administered on the 1st day with auranofin or Au1 compound (50 μM, 20 μL) was applied to the wounds. The wound sizes and mice weights were recorded each day. On the 8th day, the infection sites were excised and part of the tissues was fixed in 4% paraformaldehyde and embedded in paraffin. Four-micrometer sections were cut, stained with Gram, H&E, and Masson’s trichrome stain. The remained tissues were homogenized and serially diluted for CFU quantification (Figure 6A).

## NHC^Me-Au-Cl [Au1]
pyoverdine
  decrease of pyoverdine siderophore secretion: 50%
LasB elastase
  decrease of elastase secretion: 38%
Lung carcinoma A549 cell
  IC50: 32.8 ± 1.6 µM
P. aeruginosa
  concentration at which P. aeruginosa growth was completely inhibited: 20 µM
P. aeruginosa PAO1; 50 μM, 20 μL on wound, 8th day
  state of infected wound: almost completely recovered
P. aeruginosa PAO1; 50 μM, 20 μL on wound, 8 days
  toxicity to the mice (mice weights): no significant toxicity
P. aeruginosa PAO1; 50 μM, 20 μL on wound, vs auranofin-treated or control group
  wound healing rate: much faster
P. aeruginosa PAO1; 8th day
  bacteria in wound tissue (Gram staining): no bacteria was observed
P. aeruginosa PAO1; 8th day, CFU, compared to control group
  reduction of live bacteria in the infection sites: 90%

Source: paper PMC9096233, “Identification of an Au(I) N-Heterocyclic Carbene Compound as a Bactericidal Agent Against Pseudomonas aeruginosa” (Frontiers in Chemistry, 2022)
